Earlier results on six compounds are cited in article PMC7191262 (Molecular pharmaceutics, 2020).

The conditions of series [1]: cargo previously delivered by pHLIP.
The conditions of series [2]: pHLIP with no cargo; ref [33], [36], [39].
The mark [3] stands for this setting: ref Moshnikova et al., 2013 (Ref [17]).

Read-outs that look alike come from different tables or passages of the source. *1 amine or outer side, *2 acyl side, *3 side chain or, on linkers, in order; H or OH if unused. Where a SMILES comes first, the peptide text is derived from it. Bridges are numbered along the chain shown (N, C = ends). [ ]: non-standard residue; d: D form. The star is where a group is joined. X1 = CN(C)c1ccc2c(c1)Oc1cc(N(C)C)ccc1C2=C1C=CC(=NC(=S)NC[C@](C)(O)C[C@H](N[*:1])C(=O)[*:2])C=C1C(=O)O; Trp(2-yl) = O=C([C@H](Cc1c([*:3])[nH]c2ccccc12)N[*:1])[*:2]; Dolaproine = CO[C@@H]([C@@H]1CCCN1)[C@@H](C)C(=O)O; Dil = CC[C@H](C)[C@H](NC)[C@@H](CC(=O)O)OC; cisHyp = O=C(O)[C@@H]1C[C@H](O)CN1; X2 = C[C@@H](N*)[C@@H](O)c1ccccc1; NMeV = CN[C@H](C(=O)O)C(C)C

In the case of `CC[C@H](C)[C@@H]([C@@H](CC(=O)N1CCC[C@H]1[C@H](OC)[C@@H](C)C(=O)N[C@@H](Cc1ccccc1)C(=O)O)OC)N(C)C(=O)[C@@H](NC(=O)[C@@H](NC)C(C)C)C(C)C` [Monomethyl Auristatin F] (H-[NMeV]V[Dil][Dolaproine]F-OH), in series [1] (ref Burns et al., 2017 (Ref [20])), the LogP/LogD is 0.7.

For the compound Amanitin [Amanitin (SPDP linker)], the LogP/LogD in series [1] (setting [3]) is on record as −0.2. For “GGEQNPIYWARYADWLFTTPLLLLDLALLVDADEGTC(NPys)G [pHLIP]”, the “characteristic time for insertion” value in series [2] is listed as ~ 40 seconds. Amanitin [Amanitin (Lc-SMPT linker)]: in series [1] (setting [3]), the LogP/LogD is listed as 0.2.

In the case of `C[C@@H]1NC(=O)[C@H](C[C@@](C)(O)CNC(=S)N=C2C=CC(=C3c4ccc(N(C)C)cc4Oc4cc(N(C)C)ccc43)C(C(=O)O)=C2)NC(=O)[C@@H]2Cc3c([nH]c4ccccc34)SC[C@H](NC(=O)[C@@H]([C@H](C)O)NC1=O)C(=O)N1C[C@@H](O)C[C@H]1C(=O)N[C@@H](C)C(=O)N2` [Phalloidin-TRITC] (cyclo(A[dT]C[cisHyp]A[Trp(2-yl)][X1]); thioether 3-6), in series [1] (ref Reshetnyak et al., 2006 (Ref [24])), the LogP/LogD is on record as −0.05. As to `CC[C@H](C)[C@@H]([C@@H](CC(=O)N1CCC[C@H]1[C@H](OC)[C@@H](C)C(=O)N[C@H](C)[C@@H](O)c1ccccc1)OC)N(C)C(=O)[C@@H](NC(=O)[C@@H](NC)C(C)C)C(C)C` [Monomethyl Auristatin E] (H-[NMeV]V[Dil][Dolaproine]-X2), the LogP/LogD in series [1] (ref Burns et al., 2015 (Ref [21])) is 2.2.
